For data set [1], the system named is Staphylococcus aureus. In words: Antibacterial activity against Staphylococcus aureus ATCC 29213 measured after 24 hrs by microplate reader analysis. The format is functional.
Data set [2] concerns Staphylococcus aureus. Briefly: Antibacterial activity against methicillin-resistant Staphylococcus aureus N315 measured after 24 hrs by microplate reader analysis. The class given is functional.
For data set [3], the system named is Staphylococcus aureus. Briefly: Antibacterial activity against methicillin-resistant Staphylococcus aureus NCTC 10442 measured after 24 hrs by microplate reader analysis. The format is functional.
Data set [4] can be described thus: Hemolytic activity in rabbit erythrocytes measured after 1 hr by microplate reader analysis. The class given is ADME, cell-based, Oryctolagus cuniculus, Erythrocyte.
Data set [5] concerns Bacillus spizizenii. Briefly: Antibacterial activity against Bacillus subtilis ATCC 6633 measured after 24 hrs by microplate reader analysis. The class given is functional.
In data set [6] the test system is Bacillus subtilis. In words: Antibacterial activity against Bacillus subtilis CMCC 63501 measured after 24 hrs by microplate reader analysis. The format is functional.
The subject of data set [7] is Staphylococcus epidermidis. In words: Antibacterial activity against Staphylococcus epidermidis ATCC 12228 measured after 24 hrs by microplate reader analysis. The format is functional.
Data set [8] concerns Staphylococcus epidermidis. In words: Antibacterial activity against Staphylococcus epidermidis CMCC 26069 measured after 24 hrs by microplate reader analysis. The format is functional.
A short description of data set [9]: Selectivity ratio of MIC for Staphylococcus aureus ATCC 29213 to MIC for Bacillus subtilis ATCC 6633. The class given is functional.
The nature of data set [10]: Selectivity ratio of MIC for Staphylococcus aureus ATCC 29213 to MIC for Bacillus subtilis CMCC 63501. The format is functional.
A short description of data set [11]: Selectivity ratio of MIC for Staphylococcus aureus ATCC 29213 to MIC for Staphylococcus epidermidis ATCC 12228. The class given is functional.
Data set [12] in a line: Selectivity ratio of MIC for Staphylococcus aureus ATCC 29213 to MIC for Staphylococcus epidermidis CMCC 26069. The class given is functional.
Data set [13] in a line: Selectivity ratio of MIC for methicillin-resistant Staphylococcus aureus N315 to MIC for Bacillus subtilis ATCC 6633. The class given is functional.
A short description of data set [14]: Selectivity ratio of MIC for methicillin-resistant Staphylococcus aureus N315 to MIC for Bacillus subtilis CMCC 63501. The class given is functional.
A short description of data set [15]: Selectivity ratio of MIC for methicillin-resistant Staphylococcus aureus N315 to MIC for Staphylococcus epidermidis ATCC 12228. The format is functional.
A short description of data set [16]: Selectivity ratio of MIC for methicillin-resistant Staphylococcus aureus N315 to MIC for Staphylococcus epidermidis CMCC 26069. The format is functional.
Data set [17] in a line: Selectivity ratio of MIC for methicillin-resistant Staphylococcus aureus NCTC 10442 to MIC for Bacillus subtilis ATCC 6633. The class given is functional.
A short description of data set [18]: Selectivity ratio of MIC for methicillin-resistant Staphylococcus aureus NCTC 10442 to MIC for Bacillus subtilis CMCC 63501. The format is functional.
Data set [19] in a line: Selectivity ratio of MIC for methicillin-resistant Staphylococcus aureus NCTC 10442 to MIC for Staphylococcus epidermidis ATCC 12228. The class given is functional.
Data set [20] in a line: Selectivity ratio of MIC for methicillin-resistant Staphylococcus aureus NCTC 10442 to MIC for Staphylococcus epidermidis CMCC 26069. The class given is functional.
For data set [21], the system named is Staphylococcus aureus. In words: Bactericidal activity against Staphylococcus aureus ATCC 29213 assessed as log reduction in bacterial count at 4 times MIC preincubated for 4 hrs followed by replating on MHA medium measured after 24 hrs by time kill assay. The format is functional. Conditions: time 28 hrs.
The subject of data set [22] is Staphylococcus aureus. Briefly: Bactericidal activity against Staphylococcus aureus ATCC 29213 assessed as log reduction in bacterial count at 8 times MIC preincubated for 4 hrs followed by replating on MHA medium measured after 24 hrs by time kill assay. The class given is functional. Conditions: time 28 hrs.
The nature of data set [23]: Cytotoxicity against mouse J774.A1 cells assessed as cell viability at […] ug/ml measured after 24 hrs by CCK8 assay relative to control. The class given is cell-based. The note with it: dose 1.56 µg/ml, read-out: Activity.
Data set [24] in a line: Cytotoxicity against mouse J774.A1 cells assessed as cell viability at 3.125 ug/ml measured after 24 hrs by CCK8 assay relative to control. The format is cell-based. The note with it: at 3.125 µg/mL, read-out: Activity. Background: Tetrazolium assays rely on reduction of a dye to a coloured formazan, in cell work by metabolically active cells.
Data set [25] is described as follows: Cytotoxicity against mouse J774.A1 cells assessed as cell viability at 6.25 ug/ml measured after 24 hrs by CCK8 assay relative to control. The class given is cell-based. The note with it: at 6.25 µg/mL, read-out: Activity.
Data set [26] in a line: Cytotoxicity against mouse J774.A1 cells assessed as cell viability at 12.5 ug/ml measured after 24 hrs by CCK8 assay relative to control. The class given is cell-based. The note with it: at 12.5 µg/mL, read-out: Activity.
Data set [27] is described as follows: Cytotoxicity against mouse J774.A1 cells assessed as cell viability at 25 ug/ml measured after 24 hrs by CCK8 assay relative to control. The format is cell-based. Conditions: at 25 µg/mL, read-out: Activity.
Data set [28] can be described thus: Cytotoxicity against mouse J774.A1 cells assessed as cell viability at 50 ug/ml measured after 24 hrs by CCK8 assay relative to control. The format is cell-based. Conditions: at 50 µg/mL, read-out: Activity.
The nature of data set [29]: Cytotoxicity against mouse J774.A1 cells assessed as cell viability at 100 ug/ml measured after 24 hrs by CCK8 assay relative to control. The format is cell-based. The note with it: at 100 µg/mL, read-out: Activity.
Data set [30] has as its system Staphylococcus aureus. Briefly: Antibacterial activity against Staphylococcus aureus ATCC 29213 infected in cyclophosphamide-immunosuppressed C57BL6 mouse cornea assessed as log reduction in corneal bacterial count at 5% administered as topical solution for 4 times per day for 3 days and measured post-last dose by standard plate counting method. The format is functional. Conditions: time 3 day.

Values after ≈ are worked out from the molar mass of the structure shown.

The values that follow come from ChEMBL document CHEMBL4725344, “Development of Highly Potent Carbazole Amphiphiles as Membrane-Targeting Antimicrobials for Treating Gram-Positive Bacterial Infections” (J Med Chem, 2020).

As usually defined, the MIC is the least concentration at which growth counts as inhibited. Broadly, the HC50 is the concentration giving 50% haemolysis. Higher therefore signals less damage to red cells.

Turning to `CC(C)=CCn1c2ccccc2c2c(OCC(O)CNC(=O)[C@@H](N)CCCNC(=N)N)cccc21` (stereo partly drawn), the MIC in data set [1] was determined as 6.25 µg/mL (≈ 13 µM); in data set [2] it was 6.25 µg/mL (≈ 13 µM); in data set [3], 6.25 µg/mL (≈ 13 µM); in data set [5], 3.12 µg/mL (≈ 6.5 µM); in data set [6] it was 3.12 µg/mL (≈ 6.5 µM); in [7], 3.12 µg/mL (≈ 6.5 µM). In data set [8], inhibition of growth (MIC) required 3.12 µg/mL (≈ 6.5 µM). In data set [4], this molecule gave an HC50 at 1 h above 200 µg/mL. Moreover, the Selectivity ratio in data set [9], in data set [10], in data set [11], in data set [12], in data set [13] and in data set [14] was 2 in each case. For the same molecule, the Selectivity ratio in [15], in data set [16], in data set [17], in data set [18], in [19] and in data set [20] was 2 in each case.

As for `CN[C@H](CC(C)C)C(=O)N[C@H]1C(=O)N[C@@H](CC(N)=O)C(=O)N[C@H]2C(=O)N[C@H]3C(=O)N[C@H](C(=O)N[C@H](C(=O)O)c4cc(O)cc(O)c4-c4cc3ccc4O)[C@H](O)c3ccc(c(Cl)c3)Oc3cc2cc(c3O[C@@H]2O[C@H](CO)[C@@H](O)[C@H](O)[C@H]2O[C@H]2C[C@](C)(N)[C@H](O)[C@H](C)O2)Oc2ccc(cc2Cl)[C@H]1O` [VANCOMYCIN], the MIC in [1] was 0.78 µg/mL (≈ 0.538 µM); in [2], 1.56 µg/mL (≈ 1.08 µM); in data set [3], 1.56 µg/mL (≈ 1.08 µM). The figures for the “log(activity)” value in data set [21], in data set [22] and in [30] were 0.71, 1.45 and 3.99, respectively. Besides, the viability at 24 h, 1.56 ug/ml in data set [23] amounted to 101%. The viability at 24 h, 3.125 ug/ml in data set [24] came to 99.8%. In data set [25], the viability at 24 h, 6.25 ug/ml came out at 99.5%. In data set [26], the viability at 24 h, 12.5 ug/ml was 98.2%. The viability at 24 h, 25 ug/ml in data set [27] was determined as 92%. In addition, the viability at 24 h, 50 ug/ml in data set [28] is 91%. The viability at 24 h, 100 ug/ml in [29] was found to be 89.9%.
